Key:
14-3-3ζ/Raptor peptide = target: T1, 14-3-3ζ/Raptor peptide (Homo sapiens, UniProt P63104); assay: FA peptide screen, 14-3-3ζ titration to client peptide and compound: Raptor; assay type: binding; conditions: 250 μM compound, 100 nM peptide; +1 Tyr
T1 construct: made in house; host or cells: NiCo21 (DE3) E. coli
Method: (§1) Since the hub protein 14-3-3 binds to hundreds of phosphoprotein partners, selectivity of PPI stabilization is a major challenge. The interplay of chemical reactivity, and the topology and functionality of the composite binding pocket shaped by 14-3-3 and Tau potentially provide entries towards selective stabilization. […] Here, 14-3-3ζ was titrated to a constant concentration of client peptide (100 nM) and compound (250 μM) to determine the SF250μM values for the particular 14-3-3 PPI. A variety of 14-3-3 binding proteins was represented in this client panel whereby the size and hydrophobicity of the +1 amino acid were varied. […]
(§2) chromatography (HisTrap high performance cartridges, Cytiva). Typically two 5 mL columns were used for a 2 L culture in which the lysate was loaded on the column, washed with 10 CV wash buffer (50 mM Hepes, pH 8.0, 300 mM NaCl, 25 mM imidazole, 2 mM βME), and eluted with several fractions (2-4 CV) of elution buffer (50 mM Hepes, pH 8.0, 300 mM NaCl, 250 mM imidazole, 2 mM βME). […] Dialyzed protein was concentrated to ∼40 mg/mL, analyzed by Q -Tof LC/MS, and aliquots were flash -frozen for storage at −80 °C. […] Fractions containing the 14 -3-3 protein were pooled and concentrated to ∼60 mg/mL, analyzed Q -Tof LC/MS, and aliquots were flash -frozen for storage at −80°C.
(§3) Fluorescence Anisotropy – compound titration […]

14-3-3ζ/RND3 peptide = target: T2, 14-3-3ζ/RND3 peptide (Homo sapiens, UniProt P63104); assay: FA peptide screen, 14-3-3ζ titration to client peptide and compound: RND3; assay type: binding; conditions: 250 μM compound, 100 nM peptide; +1 Cys
T2 construct: made in house; host or cells: NiCo21 (DE3) E. coli
T2 sequence (P63104 whole entry, other chains not shown): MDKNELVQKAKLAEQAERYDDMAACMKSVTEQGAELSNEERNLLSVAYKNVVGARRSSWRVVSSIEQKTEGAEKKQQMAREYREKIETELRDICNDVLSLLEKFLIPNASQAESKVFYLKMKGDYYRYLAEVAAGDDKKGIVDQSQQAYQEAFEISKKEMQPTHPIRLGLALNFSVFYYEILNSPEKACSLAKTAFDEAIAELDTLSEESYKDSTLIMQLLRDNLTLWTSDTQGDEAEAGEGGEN
Method: as §1, §2, §3

T1 sequence (P63104 whole entry, other chains not shown): as above

## CCc1ccc(-c2nccn2-c2ccc(C=O)c(Br)c2)cc1 [Compound 18]
14-3-3ζ/Raptor peptide
  stabilization of 14-3-3/Raptor peptide (in words): no significant stabilization
14-3-3ζ/RND3 peptide
  stabilization of 14-3-3/RND3 peptide (in words): did not show significant stabilizing activity

Source: publication PMC11892739, “Site-specific molecular glues for the 14-3-3/Tau pS214 protein–protein interaction via reversible covalent imine tethering” (RSC Medicinal Chemistry, 2025)
